In PubChem BioAssay (NCI):
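Results reflect a 48-hour exposure of cells in 96-well plates to compound at five concentrations. TGI marks complete inhibition of growth.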 Where a SMILES comes first, the peptide text is derived from it. [ ]: non-standard residue; d: D form. The star is where a group is joined. ξ: configuration not given here. NMeY = CN[C@@H](Cc1ccc(O)cc1)C(=O)O; Cbz = O=C(OCc1ccccc1)*; ξA = CC(N)C(=O)O

Columns and labels:
Test in all cases: growth of human tumour cells (NCI), 48 h
[1] = tested on: KM12 colon
[2] = tested on: UACC-257 melanoma
[3] = tested on: LOX IMVI melanoma
[4] = tested on: OVCAR-3 ovarian
[5] = tested on: ACHN renal
[6] = tested on: SF-268 CNS
[7] = tested on: SK-MEL-2 melanoma
[8] = tested on: HS 578T breast
[9] = tested on: NCI/ADR-RES ovarian
[10] = tested on: CAKI-1 renal

Measured: TGI

N#CCCC(C#N)(C#N)CCC#N
> 100 µM: [1] | [2] | [3] | [4] | [5] | [6]

O=c1[nH][nH]c(=O)n1Cc1ccccc1
not listed: [5]
> 100 µM: all other assays above

CCOC(=O)/C(C1=NCCN1C)=C(\O)c1ccccc1
not listed: [8] | [9]
> 100 µM: all other assays above

C1=NN2C(c3ccccc3)=NOC2C2C(c3ccccc3)=NOC12 (configuration not stated)
not listed: [7]
> 100 µM: all other assays above

c1cc2c(cc1C1OCC3C(c4ccc5c(c4)OCO5)OCC13)OCO2 (configuration not stated)
not listed: [8] | [9] | [10]
> 100 µM: all other assays above

C#CN1C(=O)c2c(c(-c3ccccc3)c(-c3ccc(Oc4ccc(-c5c(-c6ccccc6)c6c(c(-c7ccccc7)c5-c5ccccc5)C(=O)N(C#C)C6=O)cc4)cc3)c(-c3ccccc3)c2-c2ccccc2)C1=O
not listed: [8] | [9] | [10]
> 100 µM: all other assays above

CN1C(=O)C(=Cc2ccc(Br)cc2)C(=O)N(C)C1=O
not listed: [8]
> 100 µM: all other assays above

COC(C)=NCCC1=CCCCC1
not listed: [3]
> 100 µM: all other assays above

COc1ccccc1N1CCN(S(=O)(=O)c2ccc(Cl)cc2)C1=N
not listed: [3]
> 100 µM: all other assays above

COc1ccc(/C=C2/SC(=Nc3ccccc3)N(NC(=O)Cc3ccccc3)C2=O)cc1
not listed: [3] | [10]
> 100 µM: all other assays above

O=C(O)C12C3CCC(C3)C1(C(=O)O)C1CCC2C1 (configuration not stated)
58.1 µM: [3]
not listed: [8] | [9]
> 100 µM: all other assays above

O=C(c1ccccc1)n1cc(/C=C/[N+](=O)[O-])c2ccccc21
35.6 µM: [7]
29.8 µM: [3]
52.3 µM: [6]
32.5 µM: [1]
47.3 µM: [2]
> 100 µM: [4] | [10] | [5]

Cc1cc2c(cc1Cl)SC(NNCCO)=NS2(=O)=O
not listed: [4]
> 100 µM: all other assays above

CC(C)CCNC(=O)c1ccc(CNC(=O)/C=C/c2ccc3ccccc3c2)cc1
not listed: [8]
> 100 µM: all other assays above

CC1=CC2(C)C=C[C@@H]1C(=O)[C@@]1(C)CC[C@@](O)(C(C)C)[C@H]1CC2
32.2 µM: [4]
57.1 µM: [6]
34.1 µM: [2]
39 µM: [3]
40 µM: [9]
77 µM: [7]
45.9 µM: [5]
41.7 µM: [1]
54.9 µM: [8]

CCOC(=O)/C(=C\c1c[nH]c2ccccc12)P(=O)(OCC)OCC
59.9 µM: [4]
40.3 µM: [3]
not listed: [7]
> 100 µM: all other assays above

COc1ccc(C[C@@H](C(=O)N[C@@H](C)C(N)=O)N(C)C(=O)[C@@H]2CCCN2C(=O)[C@H](CC(C)C)NC(=O)C(C)NC(=O)OCc2ccccc2)cc1 (some centres not stated) (Cbz-[ξA]LP[NMeY](Me)A-NH2)
not listed: [2]
> 100 µM: all other assays above

Cc1c(-c2coc(-c3ccc([N+](=O)[O-])cc3)n2)c(=O)n(-c2ccccc2)n1C
not listed: [8] | [9] | [10]
> 100 µM: all other assays above

CC(=O)Oc1ccc2c(c1)[nH]c1c3ccc(OC(C)=O)cc3oc(=O)c21
78.3 µM: [5]
71.9 µM: [4]
75 µM: [6]
not listed: [3] | [7]
> 100 µM: all other assays above

C=C1N(C)c2ccc(S(=O)(=O)c3ccc4c(c3)C(C)(C)C(=C)N4C)cc2C1(C)C
89.2 µM: [8]
not listed: [3]
> 100 µM: all other assays above

CC(CC(=O)N1C2CC3CCC2(CS1(=O)=O)C3(C)C)[Si](C)(C)C (configuration not stated)
not listed: [7]
> 100 µM: all other assays above

COc1ccc(S(=O)(=O)N/N=C(\C)CN2C(=O)c3ccccc3C2=O)cc1OC
not listed: [3] | [8] | [9]
> 100 µM: all other assays above

O=c1[nH]c(=O)n([C@H]2C[C@@H](CO)[C@@H](O)C2)cc1I
not listed: [8] | [9]
> 100 µM: all other assays above

O=[N+]([O-])C(C(Cl)=C(Cl)Cl)=C(N1CCCCC1)N1CCCCC1
70.8 µM: [8]
not listed: [7]
> 100 µM: all other assays above

Cc1n[nH]c(=O)n1/N=C/c1ccco1
not listed: [3]
> 100 µM: all other assays above

c1ccc2c(c1)nc1ccccn12
not listed: [3] | [7] | [10]
> 100 µM: all other assays above

COP12(OC)NC(=O)OC1(C(F)(F)F)c1ccccc1O2 (configuration not stated)
not listed: [8] | [9] | [10]
> 100 µM: all other assays above

N#Cc1c(C#N)c(SSc2c(C#N)c(C#N)c(N)n2-c2cccc3ccccc23)n(-c2cccc3ccccc23)c1N
> 76.8 µM: [9]
29.5 µM: [10]
34.8 µM: [7]
> 100 µM: [1]
33.2 µM: [6]
37.6 µM: [2]
> 57.6 µM: [8]
13.1 µM: [5]

COc1cc(C2C(C(=O)NCc3ccccc3)=C(C)NC(C)=C2C(=O)NCc2ccccc2)ccc1O
> 100 µM: [2] | [3] | [4] | [5] | [6]
61.2 µM: [7]
75.1 µM: [10]

Cc1c2c(n3c(nc4ccccc43)c1C#N)N(c1ccc(F)cc1)CC2
not listed: [1]
> 100 µM: all other assays above

COc1ccc2nc3c4c(nccc4c2c1)-c1ncccc1C3=O
1.43 µM: [7]
0.196 µM: [2]
1.83 µM: [10]
0.174 µM: [5]
7.62 µM: [9]
3.96 µM: [6]
0.0569 µM: [4]
0.0977 µM: [3]
0.706 µM: [1]

O=C1CCC(=O)c2ccccc2N1
not listed: [8] | [9]
> 100 µM: all other assays above

Cn1c2ncccc2n2c(=O)cc(O)cc12
not listed: [8]
> 100 µM: all other assays above

CN1CCS(=O)(=O)NC(Cc2ccccc2)C(=O)N2CCCC2C1=O (configuration not stated)
not listed: [8] | [9]
> 100 µM: all other assays above

O=C1C(Cl)C(c2ccc(O)cc2)N1n1cnc2ccccc2c1=O (configuration not stated)
45.3 µM: [3]
> 60.3 µM: [10]
> 90.1 µM: [4]
25.6 µM: [5]
> 63.8 µM: [7]
> 100 µM: [1] | [2] | [6]

O=C(Nn1c(-c2ccccc2)nc2ccccc2c1=O)c1cccc([N+](=O)[O-])c1
not listed: [7] | [9] | [10]
> 100 µM: all other assays above

O=c1cccccc1[O-].O=c1cccccc1[O-].O=c1cccccc1[O-].[Nd+3]
38.2 µM: [4]
97.3 µM: [7]
> 100 µM: [1] | [2] | [3] | [10] | [5]

CN(C)CC1(Cc2ccccc2)CC/C(=C\c2ccccc2)C1=O (configuration not stated)
74.9 µM: [3]
not listed: [8] | [9]
> 100 µM: all other assays above

NNC(=O)/C(NC(=O)c1ccccc1)=C(\N)c1cccc([N+](=O)[O-])c1
not listed: [8] | [9]
> 100 µM: all other assays above

COC(=O)C(=O)C(C(=O)OC)C(=O)C(=O)Nc1cc(Cl)c(C)cc1S(=O)(=O)O (configuration not stated)
not listed: [8] | [9]
> 100 µM: all other assays above

c1ccc2cc(C3NCCc4[nH]cnc43)ccc2c1 (configuration not stated)
70.9 µM: [2]
56.2 µM: [1]
not listed: [8] | [9]
> 100 µM: all other assays above

CN1CCCS/C1=C1/SC(=S)N(c2ccccc2)C1=O
not listed: [8] | [9]
> 100 µM: all other assays above

N#Cc1ccc(C2OCC3CC=CCC3CO2)cc1 (configuration not stated)
not listed: [8] | [9]
> 100 µM: all other assays above

CCC1(c2ccc(OC)c(OC)c2)CCN(S(=O)(=O)c2ccc(C)cc2)C1 (configuration not stated)
not listed: [8]
> 100 µM: all other assays above

COc1cc2ccnc(C#N)c2cc1OCc1ccccc1
not listed: [3] | [8] | [9]
> 100 µM: all other assays above

CN1N=C(c2ccncc2)OC1c1cccc(F)c1 (configuration not stated)
not listed: [10]
> 100 µM: all other assays above

COc1ccc(OC(=O)N2C/C(=C\c3ccccc3)C(=O)/C(=C/c3ccccc3)C2)cc1
45.6 µM: [7]
3.22 µM: [3]
15.2 µM: [6]
14.4 µM: [5]
7.33 µM: [8]
13.1 µM: [4]
4.18 µM: [1]
7.71 µM: [2]

COc1cc2c(cc1NC(=O)c1ccccc1)c1c(n2S(=O)(=O)c2ccccc2)CCN(S(=O)(=O)c2ccccc2)C1
not listed: [10]
> 100 µM: all other assays above
